Data from PMC12363179, “Mapping the sialic acid-binding sites of LuIII and H-1 parvovirus” (Journal of Virology, 2025).

Assays:
LuIII VLP (VP2) [1] = target: T1, LuIII VLP (VP2) (LuIII virus, UniProt P36310); test: Max-Planck glycan microarray, fluorescence; assay type: binding; details: immobilised glycan; DyLight488-labelled VLP 0.1 mg/mL, PBS-MK (MgCl2, KCl), 4 °C overnight
T1 construct: VP2-only virus-like particle without DNA, T=1 icosahedral 60-mer, baculovirus/Sf9; residues 37-587 modelled
From the text: Max-Planck glycan microarray, fluorescence on LuIII VLP (VP2)

LuIII VLP (VP2) [2] = target: T1, LuIII VLP (VP2); test: CFG glycan microarray v4.[…], antibody fluorescence; assay type: binding; details: immobilised glycan; unlabelled VLP 0.2 mg/mL, PBS, room temperature, 1 h
MVM / MVMp VLP (VP2) = target: T2, MVM / MVMp VLP (VP2) (Murine minute virus strain MVM prototype, UniProt P03137); test: Max-Planck glycan microarray, fluorescence; assay type: binding; details: immobilised glycan; DyLight488-labelled VLP 0.4 mg/mL, PBS-MK (MgCl2, KCl), 4 °C overnight
T2 construct: VP2-only virus-like particle without DNA, T=1 icosahedral 60-mer, baculovirus/Sf9; DyLight488-labelled
From the text: Max-Planck glycan microarray, fluorescence on MVM / MVMp VLP (VP2)

[3] = target: LuIII virus-like particle (VLP) composed of VP2, the major capsid protein (parvovirus LuIII); test: cryo-EM structure; VLPs of VP2 in 10 mM Tris-HCl, 500 mM NaCl, 8 mM CaCl2, 2 mM MgCl2, pH 7.5, with or without glycan (s(LN)3 or s(Le^x)2); icosahedral reconstruction in cisTEM, 60mer models fitted
[4] = target: H-1 parvovirus virus-like particle (VLP) composed of VP2, the major capsid protein (H-1 parvovirus); test: as above

| Compound | RFU (LuIII VLP (VP2) [1]) [RFU] | RFU (LuIII VLP (VP2) [2]) | RFU (MVM / MVMp VLP (VP2)) [RFU] | other results |
| --- | --- | --- | --- | --- |
| Neu5Acα2-6Gαlβ1-4Glcβ-AH [compound 8] | 105 ± 13 | – | – | – |
| Fucα1-3(Neu5Acα2-3Gαlβ1-4)GlcNAcβ1-3Gαlβ1-4Glcβ-AH [compound 7] | 151 ± 23 | – | – | – |
| CC(=O)N[C@H]1[C@H](O[C@H]2[C@@H](O)[C@@H](CO)O[C@@H](O[C@H]3[C@H](O)[C@@H](O)[C@H](OCCCN)O[C@@H]3CO)[C@@H]2O)O[C@H](CO)[C@@H](O)[C@@H]1O[C@@H]1O[C@H](CO)[C@H](O)[C@H](O)[C@H]1O[C@@H]1O[C@@H](C)[C@@H](O)[C@@H](O)[C@@H]1O [compound 65, Fucα1-2Galβ1-3GlcNAcβ1-3Galβ1-4Glcβ-Sp8] | – | 601 ± 93 RFU | – | – |
| CC(=O)N[C@H]1[C@H](O[C@H]2[C@@H](O)[C@@H](CO)O[C@@H](O[C@H]3[C@H](O)[C@@H](CO)O[C@@H](OCCN)[C@@H]3NC(C)=O)[C@@H]2O)O[C@H](CO)[C@@H](O[C@@H]2O[C@H](CO)[C@H](O)[C@H](O[C@]3(C(=O)O)C[C@H](O)[C@@H](NC(C)=O)[C@H]([C@H](O)[C@H](O)CO)O3)[C@H]2O)[C@@H]1O [compound 293, Neu5Acα2-3Galβ1-4GlcNAcβ1-3Galβ1-3GlcNAcβ-Sp0] | – | 728 ± 180 RFU | – | – |
| Neu5Acα2-3Gαlβ1-4GlcNAcβ1-3Gαlβ1-4Glcβ-AH [compound 6] | 106 ± 37 | – | 153 ± 24 | – |
| Neu5Acα2-6Gαlβ1-4GlcNAc-6-sulfαteβ-AH [compound 10] | – | – | 203 ± 36 | – |
| CC(=O)N[C@H]1[C@H](OCCCN)O[C@H](CO)[C@@H](O[C@@H]2O[C@H](CO)[C@H](O)[C@H](O[C@]3(C(=O)O)C[C@H](O)[C@@H](NC(C)=O)[C@H]([C@H](O)[C@H](O)CO)O3)[C@H]2O)[C@@H]1O[C@@H]1O[C@@H](C)[C@@H](O)[C@@H](O)[C@@H]1O [compound 253, Neu5Acα2-3Galβ1-4(Fucα1-3)GlcNAcβ-Sp8] | – | 1,685 ± 423 RFU | – | – |
| LuIII virus-like particle (VLP) composed of VP2, the major capsid protein (natural protein) | – | – | – | stoichiometry N [3]: 60 |
| H-1 parvovirus virus-like particle (VLP) composed of VP2, the major capsid protein (natural protein) | – | – | – | stoichiometry N [4]: 60 |
| Neu5Acα2-3Gαlβ1-4Glcβ-AH [compound 9] | 267 ± 44 | – | 109 ± 102 | – |
